This passage reports IC50 results from patent US6384061B1, “Hydantoin compounds and methods related thereto” (LG Chemical Ltd., priority 2000, dated 2002).

Molecules are shown by their SMILES. Where only a bound is given, the exact number is not on record here.

In assay [1] the target is T1, Geranylgeranyl transferase (Bos taurus, UniProt P29702+Q5EAD5).
T1 construct: Geranylgeranyl transferase was purified from bovine brain; from tissue; host or cells: bovine brain
In words: Geranylgeranyl transferase inhibiting activity (geranylgeranyl pyrophosphate, Ras-CVIL substrate). The note with it: geranylgeranyl transferase purified from bovine brain, read-out: GGtase IC50. It counts as biochemical. As for the experimental part:
To evaluate the selective enzyme inhibiting activity of the compound according to the present invention, inhibiting activity on geranylgeranyl transferase was measured. Geranylgeranyl transferase was purified from bovine brain with the method modified from Schber's method(Schber et al., J. Biol. Chem. 1990, 265, 14701). and substantially the same experiment as that of farnesyl transferase was performed using geranylgeranyl pyrophosphate and Ras-CVIL substrate protein under the similar condition to farnesyl transferase reaction.

Assay [2] addresses T2, Ras farnesyl transferase (Homo sapiens, UniProt P49354+P49356).
T2 construct: made in house
Put plainly: Ras farnesyl transferase inhibiting activity (filter-binding, tritium-farnesylpyrophosphate, Ras-CVLS substrate). It counts as biochemical. The note with it: recombinant Ras farnesyl transferase, 30 minutes at 37° C., read-out: Ftase IC50. Here is the method:
The enzyme reaction was performed in 50 μl of 50 mM Sodium HEPES buffer solution containing 25 mmol of potassium chloride. 25 mmol of magnesium chloride, 10 mmol of DTT and 50 μmol of zinc chloride. 1.5 μmol of Ras substrate protein, 0.15 μmol of tritium-farnesylpyrophosphate and 4.5 nmol of farnesyl transferase were used.
More specifically, in the initial step, farnesyl transferase was added to the above buffer solution, reaction was maintained for 30 minutes at 37° C. and then the reaction was stopped by adding 1 ml of ethanol solution containing 1M HCl. The formed precipitates were adsorbed to GF/B filter using Hopper harvestor(Hopper #225V) for filter-binding, washed with ethanol, and then radioactivity of the dried filter was measured using LKB β counter. Enzyme titer was measured in the unsaturated state of substrate where the concentrations of Ras substrate protein and farnesyl transferase have quantitative relationship. Enzyme inhibiting activity was measured using less than 5% of total reaction solution of the compound according to the present invention dissolved in dimethylsulfoxide(DMSO) solution as a reagent. Enzyme inhibiting activity was represented by percentage of the amount of the farnesyl incorporated with the reagent to that without the reagent.

The test system of assay [3] is intracellular Ras farnesyl transferase, Rat2 cell line. In words: Intracellular Ras farnesyl transferase inhibiting activity in transformed Rat2 cells (35S-methionine labelling, Y13-259 immunoprecipitation, SDS-PAGE). It counts as cell-based. The note with it: Rattus norvegicus; transformed Rat2 fibroblast cell line; concentration inhibiting 50% of farnesyl binding of Ras protein; read-out: Ftase CIC50. Here is the method:
In the present experiment, Rat2 cell line which expresses C-Harvey-Ras protein having transforming activity and Rat2 cell line(Korean patent application No. 97-14409) which is transformed with fused protein of H-Ras substituted with polybasic lysine domain at C-terminus of K-Ras were used. The experiment was performed by the modified Declue's method(Declue. J. E. et al., Cancer Research, 1991. 51, 712). Hereinafter, the experimental method will be described in more detail.
3×10^5 cells of transformed Rat2 fibroblast cell line were sprayed on 60 mm cell cultivation dish and cultivated for 48 hours in a cell incubator at 37° C. and after 50% or more of density was reached, it was treated with a reagent. The compound according to the present invention dissolved in dimethylsulfoxide(DMSO) was used as the reagent. 1% of dimethylsulfoxide was used in both control and experimental groups. After 4 hours from the treatment of the reagent, methionine labeled with 150 μCi of radioactive isotope, ^35S per 1 ml of medium, was added and after cultivating for 20 hours, the cells were washed with physiological saline water. The cells were lysed using 1 ml of cool cell lysis buffer solution(50 mM of Sodium Herpiss buffer solution containing 5 mmol of magnesium chloride. 1 mmol of DTT, 1% NP 40, 1 mmol of EDTA, 1 mmol of PMSF, 2 μmol of leupeptin, 2 μmol of pepstatin A and 2 μmol of antipain) and the supernatant was obtained by high-velocity centrifugation of 12,000 g×5 minutes. The amount of the labeled radioisotope of the supernatent was measured and standardized to obtain a quantitative result in immunoprecipitation reaction and then. Y13-259, monoclonal antiboby specifically binding to Ras protein(Furth, M. E. et al., J. Virol, 1982, 43, 294) was added and reacted for 15 hours at 4° C. Protein A bound to goat anti-murine Immunoglobulin antibody-agarose suspension was added to the solution and reacted for 1 hour at 4° C. and then, to remove unspecific binding product, immunoprecipitates were washed with buffer solution(50 mM Tris chloride buffer solution containing 50 mmol of sodium chloride, 0.5% of sodium dioxycolate, 0.5% of NP 40 and 0.1% of SDS). The precipitates were boiled in reagent buffer solution for electrophoresis and then, electrophoresis was performed using 13.5% of SDS polyacrylamide gel. After electrophoresis, the gel was fixed and dried. Then, the gel was exposed to X-ray film, developed and printed. From the result of the experiment, intensities of band of protein with and without farnesyl of Ras protein were measured, and the concentration of reagent inhibiting 50% of farnesyl binding was defined as CIC50, an intracellular Ras farnesyl transferase inhibiting activity.

Turning to `COC(=O)C(CCSC)NC(=O)CN1C(=O)N(CCCc2c[nH]cn2)C(=O)C1(C)c1cccc2ccccc12` (stereo not drawn) [Compound 1, 2-(2-{3-[3-(1H-imidazol-4-yl)-propyl]-5-methyl-5-naphthalen-1-yl-2,4-dioxo-imidazolidin-1-yl}-acetylamino)-4-methylsulfanyl-butyric acid methyl ester], the IC50 in assay [1] is greater than 10 µM; in assay [2] it was 500 nM; in assay [3] it was 1 µM.

With `CSCCC(NC(=O)CN1C(=O)N(CCCc2c[nH]cn2)C(=O)C1(C)c1cccc2ccccc12)C(=O)O` (stereo not drawn) [Compound 2, 2-(2-{3-[3-(1H-imidazol-4-yl)-propyl]-5-methyl-5-naphthalen-1-yl-2,4-dioxo-imidazolidin-1-yl}-acetylamino)-4-methylsulfanyl-butyric acid], the IC50 in assay [1] was found to be 3.4 µM; in assay [2], 0.8 nM; in assay [3] it was 5 µM.

With `COC(=O)C(CCSC)NC(=O)CN1C(=O)N(CCc2c[nH]cn2)C(=O)C1(C)c1cccc2ccccc12` (stereo not drawn) [Compound 3, 2-(2-{3-[2-(1H-imidazol-4-yl)-ethyl]-5-methyl-5-naphthalen-1-yl-2,4-dioxo-imidazolidin-1-yl}-acetylamino)-4-methylsulfanyl-butyric acid methyl ester], the IC50 in assay [1] is greater than 10 µM; in assay [2], 2500 nM; in assay [3] it was 5 µM.

Regarding `CSCCC(NC(=O)CN1C(=O)N(CCc2c[nH]cn2)C(=O)C1(C)c1cccc2ccccc12)C(=O)O` (stereo not drawn) [Compound 4, 2-(2-{3-[2-(1H-imidazol-4-yl)-ethyl]-5-methyl-5-naphthalen-1-yl-2,4-dioxo-imidazolidin-1-yl}-acetylamino)-4-methylsulfanyl-butyric acid], the results for the IC50 in assay [1], in assay [2] and in assay [3] were 0.7 µM, 4.8 nM and 10 µM, respectively.

With `COC(=O)C(CCSC)NC(=O)CN1C(=O)N(Cc2cnc[nH]2)C(=O)C1(C)c1cccc2ccccc12` (stereo not drawn) [Compound 5, 2-{2-[3-(3H-imidazol-4-yl-methyl)-5-methyl-5-naphthaten-1-yl-2,4-dioxo-imidazolidin-1-yl]-acetylamino}-4-methylsulfanyl-butyric acid methyl ester], the IC50 was greater than 10 µM in assay [1], 190000 nM in assay [2] and 10 µM in assay [3].

Turning to `CSCCC(NC(=O)CN1C(=O)N(Cc2cnc[nH]2)C(=O)C1(C)c1cccc2ccccc12)C(=O)O` (stereo not drawn) [Compound 6, 2-{2-[3-(3H-imidazol-4-yl-methyl)-5-methyl-5-naphthalen-1-yl-2,4-dioxo-imidazolidin-1-yl]-acetylamino}-4-methylsulfanyl-butyric acid], the IC50 in assay [1] was greater than 10 µM; in assay [2], 61 nM; in assay [3], 7.3 µM.

With `COC(=O)C(CCSC)NC(=O)CN1C(=O)N(Cc2cncn2Cc2ccc(C#N)cc2)C(=O)C1(C)c1cccc2ccccc12` (stereo not drawn) [Compound 7, 2-(2-{3-[3-(4-cyano-benzyl)-imidazol-4-yl-methyl]-5-methyl-5-naphthalen-1-yl-2,4-dioxo-imidazolidin-1-yl}-acetylamino)-4-methylsulfanyl-butyric acid methyl ester], the IC50 is greater than 10 µM in assay [1], 180 nM in assay [2] and less than 20 µM in assay [3].

For `CSCCC(NC(=O)CN1C(=O)N(Cc2cncn2Cc2ccc(C#N)cc2)C(=O)C1(C)c1cccc2ccccc12)C(=O)O` (stereo not drawn) [Compound 8, 2-(2-{3-[3-(4-cyano-benzyl)-imidazol-4-yl-methyl]-5-methyl-5-naphthalen-1-yl-2,4-dioxo-imidazolidin-1-yl}-acetylamino)-4-methylsulfanyl-butyric acid], the IC50 in assay [1] is greater than 10 µM; in assay [2], 14 nM; in assay [3], less than 20 µM.

Take `CC1(c2cccc3ccccc23)C(=O)N(CCCc2cnc[nH]2)C(=O)N1CC(=O)NC(Cc1cccs1)C(=O)O` (stereo not drawn) [Compound 9, 2-(2-{3-[3-(3H-imidazol-4-yl)-propyl]-5-methyl-5-naphthalen-1-yl-2,4-dioxo-imidazolidin-1-yl}-acetamino)-3-thiophen-2-yl-propionic acid]: the IC50 in assay [1] was 80 µM; in assay [2], 15 nM; in assay [3], less than 1 µM.
